Broadly, the IC50 is the concentration needed to halve the response being measured. As usually defined, the MRT inf is a mean duration of stay, worked out from the concentration-time curve. A word on the Cmax: it is the highest concentration seen after dosing. By Tmax is commonly meant the time at which the peak concentration occurs. What is called Kd is the free concentration of one partner at which half of the binding sites on the other are occupied at equilibrium, for simple one-to-one binding.

Consider eleven compounds from US10221174B2, “N-(phenylsulfonyl)benzamides and related compounds as BCL-2 inhibitors” (THE REGENTS OF THE UNIVERSITY OF MICHIGAN, priority 2016, dated 2019).

Where two headings read alike, the source gives them in different places.

In one series the target is Bcl-2 (Homo sapiens (Human), UniProt P10415).
Chain of Bcl-2 (P10415 whole entry): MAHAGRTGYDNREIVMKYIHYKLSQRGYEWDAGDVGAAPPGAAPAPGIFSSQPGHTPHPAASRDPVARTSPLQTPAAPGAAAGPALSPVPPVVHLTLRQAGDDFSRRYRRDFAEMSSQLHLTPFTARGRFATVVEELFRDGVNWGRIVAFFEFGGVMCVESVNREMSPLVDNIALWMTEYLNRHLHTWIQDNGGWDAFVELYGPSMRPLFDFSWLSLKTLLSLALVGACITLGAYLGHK
Another series concerns the target Bcl-xL (Homo sapiens (Human), UniProt Q07817). In words: Fluorescence polarization competitive binding assay, Bcl-xL. Particulars: FP competition, 10 nM Bcl-xL, 2 nM Flu-BAK probe; read-out: Inhibitory activity IC50 Bcl-xL. Background: In fluorescence polarisation assays a small probe gives low polarisation when free and higher when bound to something large.
Another series concerns Molm13 cells. The series is described as follows: Molm13 cell viability, CCK-8 assay. Type of series: cell-based. Particulars: Homo sapiens, MOLM-13, 96 h, CCK-8, 4 days, read-out: Molm13 IC50 (Bcl-2 dependent).
A further series has as its system RS4;11 cells. The series is described as follows: RS4;11 cell viability, CCK-8 assay. The class given is cell-based. Particulars: Homo sapiens, RS4-11, 96 h, CCK-8, 4 days, read-out: RS4, 11 IC50 (Bcl-2 dependent). How it is done:
RS4;11 cells were obtained from American Type Culture Collection (ATCC). They were used within three months of thawing fresh vials. Cells were maintained in the recommended culture medium with 10% FBS at 37° C. and an atmosphere of 5% CO2.
The effect of representative Compounds of the Disclosure on cell viability was determined using Cell Counting Kit-8 (CCK-8) assay (Dojindo, Rockville, Md.) according to the manufacturer's instructions. 200 μL of a RS4;11 cell suspension (10000 cells/well) in culture medium were seeded into 96-well plates and cultured overnight. Each tested compound was serially diluted in culture medium, and 20 μL of the compound dilution was added to the corresponding well of the cell plate. After the addition of the tested compound, the cells were incubated at 37° C. in an atmosphere of 5% CO2 for 4 days. At the end of 4 days, 10 μL of CCK-8 solution was added to each well of the plate and incubated for 1-4 hours. The plates were read at 450 nm on the microplate spectrophotometer (Epoch2, BioTek). The readings were normalized to the vehicle cells, and the IC50 was calculated by nonlinear regression analysis using GraphPad Prism 5 software.

The nature of another series: Pharmacokinetics in rats. The class given is in vivo. How it is done:
The pharmacokinetics of ABT-199 and representative Compounds of the Disclosure were evaluated in rats at an IV dose of 2 mg/kg and an oral dose of 20 mg/kg.

Another series addresses Mcl-1 (Homo sapiens (Human), UniProt Q07820). In words: FP saturation binding of fluorescent probe to Mcl-1. Conditions: 2 nM probe.

Chain of Bcl-xL (Q07817 whole entry): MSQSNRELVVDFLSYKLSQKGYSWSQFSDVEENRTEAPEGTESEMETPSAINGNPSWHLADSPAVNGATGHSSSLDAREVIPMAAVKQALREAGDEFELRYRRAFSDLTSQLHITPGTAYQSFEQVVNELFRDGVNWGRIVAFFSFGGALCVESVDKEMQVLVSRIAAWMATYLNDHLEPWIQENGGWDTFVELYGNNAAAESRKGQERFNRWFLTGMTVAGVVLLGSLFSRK
Chain of Mcl-1 (Q07820 whole entry): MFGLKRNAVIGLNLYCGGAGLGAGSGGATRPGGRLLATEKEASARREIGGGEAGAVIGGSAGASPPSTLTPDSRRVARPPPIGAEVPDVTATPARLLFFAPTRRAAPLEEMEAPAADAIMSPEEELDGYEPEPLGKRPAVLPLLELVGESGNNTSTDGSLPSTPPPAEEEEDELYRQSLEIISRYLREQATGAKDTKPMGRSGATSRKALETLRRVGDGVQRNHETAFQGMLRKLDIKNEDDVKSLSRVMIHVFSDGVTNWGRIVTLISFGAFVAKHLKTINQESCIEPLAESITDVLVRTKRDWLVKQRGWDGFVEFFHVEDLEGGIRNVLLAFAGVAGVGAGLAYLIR
Procedure for Bcl-2: (§1) Fluorescence polarization values were measured using the Infinite M-1000 plate reader (Tecan U.S., Research Triangle Park, N.C.) in Microfluor 1 96-well, black, round-bottom plates (Thermo Scientific). […] Plates were mixed and incubated at room temperature for 1 hour with gentle shaking to assure equilibrium. […] Equilibrium dissociation constants (Kd) were then calculated by fitting the sigmoidal dose-dependent FP increases as a function of protein concentrations using Graphpad Prism 5.0 software (Graphpad Software, San Diego, Calif.).
(§2) Mixtures of 5 μl of the tested inhibitors in DMSO and 120 μl of pre-incubated protein/probe complexes in the assay buffer were added into assay plates and incubated at room temperature for 2 hours with gentle shaking. […] FP values were measured as described above. IC50 values were determined by nonlinear regression fitting of the competition curves.
Procedure for Bcl-xL: as §1, §2
Procedure for Mcl-1: as §1
Procedure for Molm13 cells: Molm13 cells were obtained from Deutsche Sammlung von Mikroorganismen und Zellkulturen GmbH (DSMZ). They were used within three months of thawing fresh vials. Cells were maintained in the recommended culture medium with 10% FBS at 37° C. and an atmosphere of 5% CO2.
200 μL of a Molm13 cell suspension (10000 cells/well) in culture medium were seeded into 96-well plates and cultured overnight. Each tested compound was serially diluted in culture medium, and 20 μL of the compound dilution was added to the corresponding well of the cell plate. After the addition of the tested compound, the cells were incubated at 37° C. in an atmosphere of 5% CO2 for 4 days. […] The plates were read at 450 nm on the microplate spectrophotometer (Epoch2, BioTek). The readings were normalized to the vehicle cells, and the IC50 was calculated by nonlinear regression analysis using GraphPad Prism 5 software.

With `O=C(NS(=O)(=O)c1ccc(NCC2CCOCC2)c([N+](=O)[O-])c1)c1ccc(N2CCN(CC3=C(c4ccc(Cl)cc4)CC4(CC3)COC4)CC2)cc1Oc1cnc2[nH]ccc2c1` [Cpd. No. 2, 2-((1H-pyrrolo[2,3-b]pyridin-5-yl)oxy)-4-(4-((6-(4-chlorophenyl)-2-oxaspiro[3.5]non-6-en-7-yl)methyl)piperazin-1-yl)-N-((3-nitro-4-(((tetrahydro-2H-pyran-4-yl)methyl)amino)phenyl)sulfonyl)benzamide], the IC50 on Bcl-2 came to 0.00076 µM; at Bcl-xL, 0.0106 µM; in the series on Molm13 cells, 0.085 µM; in the series on RS4;11 cells, 0.0055 µM.

With `O=C(NS(=O)(=O)c1ccc(NCC2CCOCC2)c([N+](=O)[O-])c1)c1ccc(N2CCN(CC3=C(c4ccc(Cl)cc4)CC4(CCC4)CC3)CC2)cc1Oc1cnc2[nH]ccc2c1` [Cpd. No. 3, 2-((1H-pyrrolo[2,3-b]pyridin-5-yl)oxy)-4-(4-((6-(4-chlorophenyl)spiro[3.5]non-6-en-7-yl)methyl)piperazin-1-yl)-N-((3-nitro-4-(((tetrahydro-2H-pyran-4-yl)methyl)amino)phenyl)sulfonyl)benzamide], the “AUC0-∞ IV” value in “Pharmacokinetics in rats” (IV 2 mg/kg) was determined as 2683 n · gh/mL. In addition, the “AUC0-∞ PO” value in “Pharmacokinetics in rats” (oral 20 mg/kg) was 7775 n · gh/mL. Besides, the “F(AUC0-t)” value in “Pharmacokinetics in rats” (oral 20 mg/kg vs IV 2 mg/kg) turned out to be 29.0%. The compound further showed an MRT inf in “Pharmacokinetics in rats” (rat, in vivo, IV 2 mg/kg) of 2.37 h. Moreover, the AUC(0-t) in “Pharmacokinetics in rats” (rat, in vivo, IV 2 mg/kg, read-out: AUC0-t IV) is 2660 ng·h/mL; in “Pharmacokinetics in rats” (rat, in vivo, oral 20 mg/kg, read-out: AUC0-t PO), 7630 ng·h/mL. In “Pharmacokinetics in rats” (rat, in vivo, IV 2 mg/kg, read-out: CL (iv) (converted)), the clearance was 12.8 mL/min/kg. Also, the peak concentration (Cmax) in “Pharmacokinetics in rats” (rat, in vivo, IV 2 mg/kg, read-out: Cmax IV) was found to be 4200 ng/mL; in the series “Pharmacokinetics in rats” (rat, in vivo, oral 20 mg/kg, read-out: Cmax PO), 1320 ng/mL. The Tmax in “Pharmacokinetics in rats” (rat, in vivo, IV 2 mg/kg, read-out: Tmax IV) came out at 0.083 h; in “Pharmacokinetics in rats” (rat, in vivo, oral 20 mg/kg, read-out: Tmax PO) it was 2 h. In addition, the Vd in the series “Pharmacokinetics in rats” (rat, in vivo, IV 2 mg/kg, read-out: Vss (iv)) was determined as 1.86 L/kg. Moreover, the half-life in “Pharmacokinetics in rats” (rat, in vivo, IV 2 mg/kg, read-out: t1/2 IV (converted)) was 4.94 h; in “Pharmacokinetics in rats” (rat, in vivo, oral 20 mg/kg, read-out: t1/2 PO (converted)) it was 4.46 h. Also, the IC50 against Bcl-2 came to 0.0012 µM; at Bcl-xL, 0.0137 µM; in the series on RS4;11 cells, 0.026 µM.

Regarding `O=C(NS(=O)(=O)c1ccc(NC[C@@H]2COCCO2)c([N+](=O)[O-])c1)c1ccc(C2=CCN(CC3=C(c4ccc(Cl)cc4)CC4(CCC4)CC3)CC2)cc1Oc1cnc2[nH]ccc2c1` [compound 1, (R)-N-((4-(((1,4-dioxan-2-yl)methyl)amino)-3-nitrophenyl)sulfonyl)-2-((1H-pyrrolo[2,3-b]pyridin-5-yl)oxy)-4-(1-((6-(4-chlorophenyl)spiro[3.5]non-6-en-7-yl)methyl)-1,2,3,6-tetrahydropyridin-4-yl)benzamide], the IC50 with Molm13 cells amounted to 0.047 µM; in the series with RS4;11 cells, 0.003 µM.

As to `CNc1ccc(S(=O)(=O)NC(=O)c2ccc(N3CCN(CC4=C(c5ccc(Cl)cc5)CC5(CCC5)CC4)CC3)cc2Oc2cnc3[nH]ccc3c2)cc1[N+](=O)[O-]` [compound 10, 2-((1H-pyrrolo[2,3-b]pyridin-5-yl)oxy)-4-(4-((6-(4-chlorophenyl)spiro[3.5]non-6-en-7-yl)methyl)piperazin-1-yl)-N-((4-(methylamino)-3-nitrophenyl)sulfonyl)benzamide], the IC50 against Bcl-2 amounted to 0.0033 µM; at Bcl-xL, 0.014 µM; in the series on Molm13 cells it was 0.182 µM; with RS4;11 cells, 0.032 µM.

With `CN(C)c1ccc(S(=O)(=O)NC(=O)c2ccc(N3CCN(CC4=C(c5ccc(Cl)cc5)CC5(CCC5)CC4)CC3)cc2Oc2cnc3[nH]ccc3c2)cc1[N+](=O)[O-]` [compound 11, 2-((1H-pyrrolo[2,3-b]pyridin-5-yl)oxy)-4-(4-((6-(4-chlorophenyl)spiro[3.5]non-6-en-7-yl)methyl)piperazin-1-yl)-N-((4-(dimethylamino)-3-nitrophenyl)sulfonyl)benzamide], the IC50 came out at 0.0119 µM on Bcl-2, 0.0778 µM at Bcl-xL, 1.02 µM in the series with Molm13 cells and 0.061 µM in the series on RS4;11 cells.

As for `O=C(NS(=O)(=O)c1ccc(NCC2CCOCC2)c([N+](=O)[O-])c1)c1ccc(C2CCN(CC3=C(c4ccc(Cl)cc4)CC4(CCC4)CC3)CC2)cc1Oc1cnc2[nH]ccc2c1` [compound 12, 2-((1H-pyrrolo[2,3-b]pyridin-5-yl)oxy)-4-(1-((6-(4-chlorophenyl)spiro[3.5]non-6-en-7-yl)methyl)piperidin-4-yl)-N-((3-nitro-4-(((tetrahydro-2H-pyran-4-yl)methyl)amino)phenyl)sulfonyl)benzamide], the IC50 against Bcl-2 was found to be 0.0044 µM; in the series with Molm13 cells, 0.253 µM; in the series on RS4;11 cells it was 0.078 µM.

For `CC(C)c1nc2cc(S(=O)(=O)NC(=O)c3ccc(N4CCN(CC5=C(c6ccc(Cl)cc6)CC6(CCC6)CC5)CC4)cc3Oc3cnc4[nH]ccc4c3)cc([N+](=O)[O-])c2[nH]1` [compound 58, 2-((1H-pyrrolo[2,3-b]pyridin-5-yl)oxy)-4-(4-((6-(4-chlorophenyl)spiro[3.5]non-6-en-7-yl)methyl)piperazin-1-yl)-N-((2-isopropyl-7-nitro-1H-benzo[d]imidazol-5-yl)sulfonyl)benzamide], the IC50 was 0.0038 µM on Bcl-2, 0.0192 µM at Bcl-xL, 0.25 µM in the series with Molm13 cells and 0.035 µM with RS4;11 cells.

As for `O=C(NS(=O)(=O)c1cc([N+](=O)[O-])c2[nH]c(C3CC3)nc2c1)c1ccc(N2CCN(CC3=C(c4ccc(Cl)cc4)CC4(CCC4)CC3)CC2)cc1Oc1cnc2[nH]ccc2c1` [compound 59, 2-((1H-pyrrolo[2,3-b]pyridin-5-yl)oxy)-4-(4-((6-(4-chlorophenyl)spiro[3.5]non-6-en-7-yl)methyl)piperazin-1-yl)-N-((2-cyclopropyl-7-nitro-1H-benzo[d]imidazol-5-yl)sulfonyl)benzamide], the IC50 on Bcl-2 amounted to 0.005 µM; at Bcl-xL, 0.0207 µM; in the series with Molm13 cells, 0.468 µM; in the series on RS4;11 cells, 0.065 µM.

`O=C(NS(=O)(=O)c1cc([N+](=O)[O-])c2cn(CC3CCOCC3)nc2c1)c1ccc(N2CCN(CC3=C(c4ccc(Cl)cc4)CC4(CCC4)CC3)CC2)cc1Oc1cnc2[nH]ccc2c1` [compound 63, 2-((1H-pyrrolo[2,3-b]pyridin-5-yl)oxy)-4-(4-((6-(4-chlorophenyl)spiro[3.5]non-6-en-7-yl)methyl)piperazin-1-yl)-N-((4-nitro-2-((tetrahydro-2H-pyran-4-yl)methyl)-2H-indazol-6-yl)sulfonyl)benzamide]: the IC50 on Bcl-2 is 0.0013 µM; on Bcl-xL, 0.0071 µM; with RS4;11 cells, 0.055 µM.

Consider `O=C(NS(=O)(=O)c1cc([N+](=O)[O-])c2cn(C3CCOCC3)nc2c1)c1ccc(N2CCN(CC3=C(c4ccc(Cl)cc4)CC4(CCC4)CC3)CC2)cc1Oc1cnc2[nH]ccc2c1` [compound 65, 2-((1H-pyrrolo[2,3-b]pyridin-5-yl)oxy)-4-(4-((6-(4-chlorophenyl)spiro[3.5]non-6-en-7-yl)methyl)piperazin-1-yl)-N-((4-nitro-2-(tetrahydro-2H-pyran-4-yl)-2H-indazol-6-yl)sulfonyl)benzamide], for which the results for the IC50 against Bcl-2, at Bcl-xL and with RS4;11 cells were 0.0014 µM, 0.0099 µM and 0.011 µM, respectively.

In the series with Mcl-1, “Flu-BID: Fluorescein labeled BID (79-99) peptide, fluorescent probe in FP assay for Mcl-1” displayed a Kd of 0.0069 ± 0.0009 µM.
